Usually IC50 stands for the concentration at which inhibition is half-maximal. A lower IC50 goes with greater potency in that assay.

The values that follow come from US6469026B2, “Isoquinolone inhibitors of factor Xa” (Millennium Pharmaceuticals, Inc., priority 2000, dated 2002).

Test [1] deals with factor Xa (Homo sapiens, UniProt P00742). Put plainly: factor Xa amidolytic assay (XA). The class given is biochemical. Conditions: substrate S-2765, 5 min preincubation, room temperature, pH 7.5. The procedure:
The compounds of the present invention are dissolved in buffer to give solutions containing concentrations such that assay concentrations range from 0 to 100 μM. In the assays for thrombin, prothrombinase and factor Xa, a synthetic chromogenic substrate is added to a solution containing test compound and the enzyme of interest and the residual catalytic activity of that enzyme is detennined spectrophotometrically. The IC50 of a compound is determined from the substrate turnover. The IC50 is the concentration of test compound giving 50% inhibition of the substrate turnover.
(§1) The factor Xa and thrombin assays were performed at room temperature, in 0.02 M TrisHCl buffer, pH 7.5, containing 0.15 M NaCl. The rates of hydrolysis of the para-nitroanilide substrate S-2765 (Chromogenix) for factor Xa, and the substrate Chromozym TH (Boehringer Mannheim) for thrombin following preincubation of the enzyme with inhibitor for 5 minutes at room temperature, and were determined using the Softmax 96-well plate reader (Molecular Devices), monitored at 405 nm to measure the time dependent appearance of p-nitroaniline.

Test [2] deals with T1, thrombin (Homo sapiens, UniProt P00734).
T1 construct: proteolytic cleavage of its precursor prothrombin at the Arg-Thr linkage at positions 271-272 and the Arg-Ile linkage at positions 320-321
Put plainly: thrombin amidolytic assay (IIA). Conditions: substrate Chromozym TH, 5 min preincubation, room temperature, pH 7.5. The class given is biochemical. The procedure: […] In the assays for thrombin, prothrombinase and factor Xa, a synthetic chromogenic substrate is added to a solution containing test compound and the enzyme of interest and the residual catalytic activity of that enzyme is detennined spectrophotometrically. The IC50 of a compound is determined from the substrate turnover. The IC50 is the concentration of test compound giving 50% inhibition of the substrate turnover.
as §1

Chain of factor Xa (P00742 235-488 limits assumed): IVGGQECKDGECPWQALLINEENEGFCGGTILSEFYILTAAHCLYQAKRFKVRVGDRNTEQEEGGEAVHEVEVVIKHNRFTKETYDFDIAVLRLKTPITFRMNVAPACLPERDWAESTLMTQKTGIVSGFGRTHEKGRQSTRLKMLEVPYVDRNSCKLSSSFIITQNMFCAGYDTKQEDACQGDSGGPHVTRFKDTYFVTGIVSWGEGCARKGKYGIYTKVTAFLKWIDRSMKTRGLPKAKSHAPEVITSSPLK
Chain of factor Xa (P00742 41-179 partner limits assumed): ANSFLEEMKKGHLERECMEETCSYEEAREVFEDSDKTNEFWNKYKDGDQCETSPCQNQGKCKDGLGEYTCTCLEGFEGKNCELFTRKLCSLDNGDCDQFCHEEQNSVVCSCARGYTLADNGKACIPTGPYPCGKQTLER

As to `CC(=N)N1CCC(Oc2ccc3c(c2)CCN(C(Cc2cccc(C(=N)N)c2)C(=O)NC(C)(C)C)C3=O)CC1` (centres unmarked) [Example 13], the half-inhibitory concentration (IC50) in test [1] was determined as 993 nM; in test [2], 35900 nM. Take `CC(=N)N1CCC(Oc2ccc3c(c2)CCN(C(Cc2cccc(C(=N)N)c2)C(=O)O)C3=O)CC1` (centres unmarked) [Example 14]: the midpoint of inhibition in test [1], the IC50, lay at 810 nM. The same measure, in the same setting: the figure for `N=C(N)c1cccc(CC(C(=O)O)N2CCc3cc(OC4CCN(C(=N)N)CC4)ccc3C2=O)c1` (centres unmarked) [Example 15] is 794 nM. For `COC(=O)C(Cc1ccc2ccc(C(=N)N)cc2c1)N1CCc2cc(OC3CCN(C(=N)N)CC3)ccc2C1=O` (centres unmarked) [Example 16], the results for the IC50 in test [1] and in test [2] were 693 nM and 228000 nM, respectively.

The compound `CC(=N)N1CCC(Oc2ccc3c(c2)CCN(C(Cc2ccc4ccc(C(=N)N)cc4c2)C(=O)O)C3=O)CC1` (centres unmarked) [Example 17] returned a half-maximal inhibitory concentration (IC50) in test [1] of 348 nM. Still for that read-out and setting: the figure for `N=C(N)c1ccc2ccc(CC(C(=O)O)N3CCc4cc(OC5CCN(C(=N)N)CC5)ccc4C3=O)cc2c1` (centres unmarked) [Example 18] is 282 nM. Regarding `CC(=N)N1CCC(Oc2ccc3c(c2)CCN(C(Cc2ccc4ccc(C(=N)N)cc4c2)C(=O)OC(C)(C)C)C3=O)CC1` (centres unmarked) [Example 19], the results for the IC50 in test [1] and in test [2] were 258 nM and 119000 nM, respectively. With `CC(C)(C)OC(=O)C(Cc1ccc2ccc(C(=N)N)cc2c1)N1CCc2cc(OC3CCN(C(=N)N)CC3)ccc2C1=O` (centres unmarked) [Example 20], the figures for the IC50 in test [1] and in test [2] were 168 nM and 101000 nM, respectively. Regarding `COC(=O)C(Cc1cccc(C(=N)N)c1)N1CCc2cc(OC3CCN(C(=N)N)CC3)ccc2C1=O` (centres unmarked) [Example 21], the IC50 in test [1] amounted to 152 nM; in test [2], 402000 nM. The matching figures for `COC(=O)C(Cc1cccc(C(=N)N)c1)N1CCc2cc(OC3CCN(C(C)=N)CC3)ccc2C1=O` (centres unmarked) [Example 22]: 129 nM and 393000 nM. The matching figures for `CC(C)(C)OC(=O)C(Cc1cccc(C(=N)N)c1)N1CCc2cc(OC3CCN(C(=N)N)CC3)ccc2C1=O` (centres unmarked) [Example 23]: 47.5 nM and 233000 nM. For `CC(=N)N1CCC(Oc2ccc3c(c2)CCN(C(Cc2cccc(C(=N)N)c2)C(=O)OC(C)(C)C)C3=O)CC1` (centres unmarked) [Example 24] the same measures were 22.1 nM and 150000 nM.
